Entries after “also recorded” stand apart in the source; their conditions may differ. Like-named read-outs stand apart in the source and are kept apart here.
Tests used:
FCR3S1 rosettes [1] = assay: Rosette disruption assay, laboratory strain FCR3S1; type: cell-based, Plasmodium falciparum; conditions: for reduction of rosette disruption efficiency compared to native heparin: modified heparin; for rosette reversion by disaccharide: at 45 mM; for rosette disrupting effect of heparin disaccharides: not shown; for sensitivity of FCR3S1 rosettes to the compound: 30 minutes at 37° C.
Excerpt: (§1) Parasites and rosetting—Two distinct highly resetting P. Falciparum laboratory stains were used: FCR3S1 (previously named R^+PA1) and TM 284 (isolated in Thailand, 1990). Parasites were cultivated according to standard procedures (Udomsangpetch et al. 1989). Field isolates were obtained from patients attending the Albert Schweitzer Hospital, Lambaréné, Gabon between April and June 1996. […] A venous or capillary blood sample was taken after patients or parents informed consent. Blood was washed three times with RPMI and cultivated according to standard procedures (Udomsangpetch et al. 1989). Assessment for parasite growth and resetting was made every 6–8 hours using a Leitz UV-light microscope. Briefly, an aliquot of parasite culture was mixed with a small amount of acridine orange and the sample was analyzed. Assays were performed on rosetting isolates when the majority of parasites in culture had reached the trophozoite stage. The resetting rate was expressed as the number of infected erythrocytes in rosettes relative to the total number of late stage infected erythrocytes. Three hundred infected cells were counted. Parasitemia was calculated as the number of infected erythrocytes relative to the number of uninfected erythrocytes.
(§2) For laboratory stains, parasite cultures with rosetting rates of 50–70% and parasitemia 5–8% were used Aliquots (12.5–25 μl) of parasite cultures were mixed with equal amounts of sulfated glycoconjugate compound in RPMI in a 96-well microtiter plate, at final concentrations indicated After incubation for 30 minutes at 37° C. assessment for resetting was made as described above. The resetting rate was compared to that of culture mixed with RPMI.

TM 284 rosetting = type: cell-based, Plasmodium falciparum; conditions: compared to mock treated control cultures
FCR3S1 rosetting = type: cell-based, Plasmodium falciparum; conditions: compared to mock treated control cultures
FCR3S1.2 rosettes = assay: Rosette disruption assay, FCR3S1.2; type: cell-based, Plasmodium falciparum; conditions: incubated with GAGs for 1 h at 37° C., compared to control culture
Experimental: FIG. 5. Effect of glycosaminoglycans (GAGS) on P. falciparum resetting. […] FCR3S1.2 cultures were incubated with GAGs for 1 h at 37° C. and compared to control culture. Results are the means and standard error of three separate experiments.
The assay was performed essentially as described (Carlson, J. and M. Wahlgren, 1992. Plasmodium falciparum erythrocytes resetting is mediated by promiscuous lectin-like interactions. J. Exp. Med., 176, 1311–1317). The recombinant fission proteins ([…] in PBS of DBL-1-GST or ATS-GST) were added to 25 μl aliquots of a ≈80% rosetting culture of FCR3S1.2 in a micro-titre plate. The mixtures were incubated for 30 min. at 37° C. after which the rosetting rate was scored and compared to mock treated controls after staining with acridine orange.

[2] = test system: rosettes of wild isolates; assay: Rosette disruption assay, wild (patient) isolates; type: cell-based, Plasmodium falciparum; conditions: for rosette disruption of wild / fresh isolates: both groups of isolates; for relative effectiveness as rosette disrupter on the whole collection of wild isolates: thirtytwo patient isolates
Excerpt: as §1, §2

[3] = test system: uninfected RBC rosette binding capacity; type: cell-based, Plasmodium falciparum; conditions: compared to non-treated RBC
[4] = test system: DBL-1-GST fusion protein (FCR3S1.2-PfEMP1); assay: Heparin blocking assay: inhibition of DBL-1-GST binding to heparin-sepharose by GAGs; design: species or system Plasmodium falciparum; conditions: GAG titrated from 10 to 0.5 mg/ml, SDS-PAGE
Experimental: The potential binding of the fusion proteins to heparin was studied by mixing either DBL-1-GST, ATS-GST fusion protein or GST alone (20 μl, 150 μg/ml in PBS) with 20 μl of 50% heparin-sepharose (Pharmacia) and incubating for 5 min at room temperature in the absence of serum; binding to uncoupled sepharose was used as control. The heparin-sepharose and protein mixture was washed 3 times in large volumes of PBST buffer (PBS plus 0.05% Tween-20) before extracting bound proteins in loading-buffer for 10% SDS-PAGE. Inhibition of DBL-1-GST fission protein binding to heparin with heparin, heparan sulfate or chondroitin sulfate (Lövens Kemiske Fabrik, Denmark, more than 90% pure) was also tested. Twenty μl of 150 μg/ml DBL-1-GST fusion protein was mixed separately for 5 minutes with an equal volume of heparin, heparan sulfate, or chondroitin sulfate, titrated from 10 to 0.5 mg/ml, before the addition of heparin sepharose. The inhibitory activities were checked by SDS-PAGE.

TM 284 rosettes [5] = assay: Rosette disruption assay, laboratory strain TM 284; type: cell-based, Plasmodium falciparum; conditions: for sensitivity of TM 284 rosettes to the compound: relative to FCR3S1
Excerpt: as §1, §2

[6] = test system: DBL-1-GST fusion protein (FCR3S1.2-PfEMP1); assay: Erythrocyte blocking assay: inhibition of DBL-1-GST binding to RBC by GAGs; type: cell-based, Plasmodium falciparum; conditions: GAG titrated from 20 to 8 mg/ml
Experimental: Ten-well immunofluorescence glass-slides were precoated with 10% poly-L-lysine in PBS for 30 min. Monolayers of RBC were made by addition of 20 μl of 0.5% 3× washed bloodgroup O Rh^+RBC in PBS to each well. Twenty μl DBL-1-GST, ATS-GST or GST alone (80 μg/ml) in PBS was added to the wells for 30 min. The DBL-1-GST fusion protein was in subsequent experiments incubated in the presence of heparin, heparan sulfate or chondroitin sulfate (titrated from 20 to 8 mg/ml) to study the inhibitory activity of each GAG. Slides were washed 3 times with PBS and the fusion protein-binding was detected with the biotin-labelled anti-GST mAb and an EXTRAVIDIN (a modified avidin) FITC conjugate (Sigma). The fluorescence was assessed in a Nikon Optiphot-2 UV microscope, using a ×10 ocular and an oil lens with a magnification of ×100.

TM 284 rosettes [7] = type: cell-based, Plasmodium falciparum
FCR3S1 rosettes [8] = type: cell-based, Plasmodium falciparum
[9] = test system: rosettes of fresh P. falciparum-isolates; conditions: cited from earlier work

For `O=S(=O)(O)NC1C(O)OC(CO)C(O)C1O` (stereo not shown) [N-sulfated galactosamine], the “rosette disrupting activity of monosaccharides” value (“rosette disrupting activity” below) (FCR3S1 rosettes [1]) was “lacked rosette disrupting activity and none and does not”.

With chymotrypsin the “change in rosetting after treatment of whole cultures, TM 284” value (“change in rosetting … TM 284” for short) (TM 284 rosetting) was “rosetting was abolished completely” and the “change in rosetting after treatment of whole cultures, FCR3S1” value (“change in rosetting … FCR3S1” for short) (FCR3S1 rosetting) was “rosetting was abolished completely”.

For 6-O-desulfated heparin, the “reduction of rosette disruption efficiency compared to native heparin” value (FCR3S1 rosettes [1]) was about 10 fold.

For `O=C(O)C1=C[C@H](O)[C@@H](O)[C@H](O[C@H]2[C@H](O)[C@@H](NS(=O)(=O)O)C(O)O[C@@H]2CO)O1` (stereo partly shown) [IV-S, ΔHexA-GlcNSO3], the “rosette reversion by disaccharide” value (FCR3S1 rosettes [1]) was “complete rosette reversion”.

For hyaluronic acid, the “disruptive activity of GAGs on FCR3S1.2 rosettes” value (“disruptive activity of GAGs” for short) (FCR3S1.2 rosettes) was “neither chondroitin sulfate A, keratan sulfate, nor hyaluronic acid had any effect”.

With `NC1C(O)OC(CO)C(OC2OC(C(=O)O)=CC(O)C2OS(=O)(=O)O)C1O` (stereo not shown) [III-H, ΔHexA(2-OSO3-GlcN)] the “rosette disrupting effect of heparin disaccharides” value (“rosette disrupting effect” below) (FCR3S1 rosettes [1]) was “no rosette disrupting effect”.

With fucoidan the “rosette disruption of wild / fresh isolates” value [2] was “strong rosette disrupter; also recorded: disrupted rosettes of almost all fresh isolates” and the “relative effectiveness as rosette disrupter on the whole collection of wild isolates” value (shortened to “relative effectiveness”) [2] was “most effective rosette disrupter for most isolates”.

For keratan sulfate, the “disruptive activity of GAGs” value (FCR3S1.2 rosettes) was “neither chondroitin sulfate A, keratan sulfate, nor hyaluronic acid had any effect”.

With `N[C@H]1C(O)O[C@H](CO)[C@@H](O[C@@H]2OC(C(=O)O)=C[C@H](O)[C@H]2O)[C@@H]1O` (stereo partly shown) [IV-H, ΔHexA-GlcN] the “rosette disrupting effect” value (FCR3S1 rosettes [1]) was “no rosette disrupting effect”.

With `CC(=O)N[C@H]1C(O)O[C@H](COS(=O)(=O)O)[C@@H](O)[C@@H]1O` (stereo partly shown) [N-acetylated glucosamine with an O-sulfate ester at C-6] the “rosette disrupting activity” value (FCR3S1 rosettes [1]) was “Some activity”.

For `[O-][I+3]([O-])([O-])O` [Sodium periodate], the “change in rosetting … TM 284” value (TM 284 rosetting) was “intermediate effect”, the “change in rosetting … FCR3S1” value (FCR3S1 rosetting) was “intermediate effect” and the “decrease of rosette binding capacity of treated uninfected RBC” value [3] was 4 fold.

With chondroitin sulfate the “inhibition of DBL-1-GST binding to heparin-sepharose” value (shortened to “inhibition … to heparin-sepharose”) [4] was “but not with chondroitin sulfate”, the “sensitivity of FCR3S1 rosettes to the compound” value (“sensitivity of FCR3S1 rosettes” for short) (FCR3S1 rosettes [1]) was “little or no effect” and the “relative effectiveness” value [2] was “the least effective”. For the same compound, the “sensitivity of TM 284 rosettes to the compound” value (from here on “sensitivity of TM 284 rosettes”) (TM 284 rosettes [5]) was “relatively higher sensitivity”.

With 2-O-desulfated heparin the “reduction of rosette disruption efficiency compared to native heparin” value (FCR3S1 rosettes [1]) was about 10 fold.

For `N[C@H]1C(O)O[C@H](COS(=O)(=O)O)[C@@H](O[C@@H]2OC(C(=O)O)=C[C@H](O)[C@H]2O)[C@@H]1O` (stereo partly shown) [II-H, ΔHexA-GlcN(6-OSO3)], the “rosette disrupting effect” value (FCR3S1 rosettes [1]) was “no rosette disrupting effect”.

For `O=S(=O)(O)N[C@H]1C(O)O[C@H](CO)[C@@H](O)[C@@H]1O` (stereo partly shown) [N-sulfated glucosamine], the “rosette disrupting activity” value (FCR3S1 rosettes [1]) was “total rosette disruption; also recorded: abolishes rosetting” and the “rosette disrupting activity” value (FCR3S1 rosettes [1]; listed as N-sulfated mono-saccharide glucosamine) was “good anti-rosetting activity”.

In the case of `CC(=O)NC1C(O)OC(CO)C(OC2OC(C(=O)O)=CC(O)C2O)C1O` (stereo not shown) [IV-A, ΔHexA-ClcNAc], the “rosette reversion by disaccharide” value (FCR3S1 rosettes [1]) is reported as “completely lacked effect”.

For dextran sulfate, the “rosette disruption of wild / fresh isolates” value [2] was “much less effective that GAGs in most of the strains” and the “relative effectiveness” value [2] was “intermediate position”.

For heparan sulfate, the “inhibition of DBL-1-GST binding to erythrocytes” value [6] was “could be inhibited with small amounts”, the “disruptive activity of GAGs” value (FCR3S1.2 rosettes) was “sensitive” and the “inhibition … to heparin-sepharose” value [4] was “dose-dependently be competed out”. The “sensitivity of FCR3S1 rosettes” value (FCR3S1 rosettes [1]) was “high sensitivity”, the “relative effectiveness” value [2] was “intermediate position” and the “sensitivity of TM 284 rosettes” value (TM 284 rosettes [5]) was “less sensitive”.

For Chondroitin sulfate B, the “disruptive activity of GAGs” value (FCR3S1.2 rosettes) was “slight effect only at high concentrations”.

For trypsin, the “change in rosetting … TM 284” value (TM 284 rosetting) was “rosetting was abolished completely” and the “change in rosetting … FCR3S1” value (FCR3S1 rosetting) was “rosetting was abolished completely”.

For dermatan sulfate, the “sensitivity of FCR3S1 rosettes” value (FCR3S1 rosettes [1]) was “little or no effect”, the “relative effectiveness” value [2] was “intermediate position” and the “sensitivity of TM 284 rosettes” value (TM 284 rosettes [5]) was “relatively higher sensitivity”.

With `O=C(O)C1=C[C@H](O)[C@@H](OS(=O)(=O)O)[C@H](O[C@H]2[C@H](O)[C@@H](NS(=O)(=O)O)[C@@H](O)O[C@@H]2COS(=O)(=O)O)O1` [I-S, ΔHexA(2-OSO3)-GlcNSO3(6-OSO3)] the “rosette disruption by disaccharide titrated against heparin” value (FCR3S1 rosettes [1]; 30 mM disaccharide, preliminary experiment) was “disrupted to the same extent as with heparin at 1 mg/ml”.

In the case of chondroitin sulfate A, the “disruptive activity of GAGs” value (FCR3S1.2 rosettes) is reported as “neither chondroitin sulfate A, keratan sulfate, nor hyaluronic acid had any effect”.

With Chondroitinase ABC the “change in rosetting … TM 284” value (TM 284 rosetting) was “had only effect on the rosetting of the TM284 strain”, the “decrease of binding capacity of treated uninfected RBC, TM 284” value (TM 284 rosettes [7]) was “two fold decrease” and the “change in rosetting … FCR3S1” value (FCR3S1 rosetting) was “had only effect on the rosetting of the TM284 strain”. The “binding capacity of treated uninfected RBC, FCR3S1” value (FCR3S1 rosettes [8]) was “unaffected”.

With heparin the “inhibition of DBL-1-GST binding to erythrocytes” value [6] was “could be inhibited with small amounts”, the “disruptive activity of GAGs” value (FCR3S1.2 rosettes) was “sensitive” and the “inhibition … to heparin-sepharose” value [4] was “dose-dependently be competed out”. For the same compound, the “fresh isolates whose rosettes were disrupted” value ([9]; 54 fresh isolates) was 50%, the “number of fresh isolates whose rosettes were disrupted” value ([9]; out of 54 fresh isolates) was 27 and the “sensitivity of FCR3S1 rosettes” value (FCR3S1 rosettes [1]) was “high sensitivity”. The “efficiency of heparin chain relative to disaccharide I-S, weight basis” value (FCR3S1 rosettes [1]; heparin 1 mg/ml vs I-S 30 mM) was “around 20 fold”, the “efficiency of heparin chain relative to disaccharide I-S, molar basis” value (FCR3S1 rosettes [1]; heparin ≃70 μM vs I-S 30 mM) was “around 500 fold” and the “relative effectiveness” value [2] was “intermediate position”. The rosettes disrupted (TM 284 rosettes [5]; at 1 mg/ml (not shown)) was 80% and the “sensitivity of TM 284 rosettes” value (TM 284 rosettes [5]) was “less sensitive”.
